Activity calls are given as the source filed them. The rule behind the calls is not given here.
Assays:
[1] = molecular target: T1, Glucocorticoid receptor (Homo sapiens) (UniProt P04150); assay: Agonist activity at human Glucocorticoid receptor expressed in human HeLa cells assessed as DHT-induced response after 40 hrs by luciferase/beta-galactosidase-based reporter gene assay; format: functional, cell-based
T1 sequence (whole entry): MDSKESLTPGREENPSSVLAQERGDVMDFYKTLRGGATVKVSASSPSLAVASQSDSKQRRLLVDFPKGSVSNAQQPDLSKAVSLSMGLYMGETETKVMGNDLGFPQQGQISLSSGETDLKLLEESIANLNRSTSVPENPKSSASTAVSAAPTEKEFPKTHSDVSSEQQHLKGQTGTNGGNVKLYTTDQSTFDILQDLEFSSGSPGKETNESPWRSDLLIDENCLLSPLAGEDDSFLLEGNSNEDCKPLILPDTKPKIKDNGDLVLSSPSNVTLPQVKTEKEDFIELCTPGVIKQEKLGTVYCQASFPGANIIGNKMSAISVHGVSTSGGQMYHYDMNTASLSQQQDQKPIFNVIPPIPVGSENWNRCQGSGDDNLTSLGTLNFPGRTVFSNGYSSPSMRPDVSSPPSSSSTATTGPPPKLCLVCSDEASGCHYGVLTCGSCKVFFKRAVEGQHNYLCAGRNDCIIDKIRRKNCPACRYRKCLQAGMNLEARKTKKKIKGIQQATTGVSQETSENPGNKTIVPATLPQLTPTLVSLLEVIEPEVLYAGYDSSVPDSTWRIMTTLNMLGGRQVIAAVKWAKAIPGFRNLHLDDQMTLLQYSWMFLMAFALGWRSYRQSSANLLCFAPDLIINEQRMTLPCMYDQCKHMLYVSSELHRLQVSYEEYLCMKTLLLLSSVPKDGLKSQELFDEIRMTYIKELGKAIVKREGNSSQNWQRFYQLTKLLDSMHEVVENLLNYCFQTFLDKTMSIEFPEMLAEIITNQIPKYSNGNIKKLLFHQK

[2] = molecular target: T2, Androgen receptor (Homo sapiens) (UniProt P10275); assay: Antagonist activity at human androgen receptor expressed in human HeLa cells assessed as inhibition of DHT-induced response after 40 hrs by luciferase/beta-galactosidase-based reporter gene assay; format: functional, cell-based
T2 sequence (whole entry): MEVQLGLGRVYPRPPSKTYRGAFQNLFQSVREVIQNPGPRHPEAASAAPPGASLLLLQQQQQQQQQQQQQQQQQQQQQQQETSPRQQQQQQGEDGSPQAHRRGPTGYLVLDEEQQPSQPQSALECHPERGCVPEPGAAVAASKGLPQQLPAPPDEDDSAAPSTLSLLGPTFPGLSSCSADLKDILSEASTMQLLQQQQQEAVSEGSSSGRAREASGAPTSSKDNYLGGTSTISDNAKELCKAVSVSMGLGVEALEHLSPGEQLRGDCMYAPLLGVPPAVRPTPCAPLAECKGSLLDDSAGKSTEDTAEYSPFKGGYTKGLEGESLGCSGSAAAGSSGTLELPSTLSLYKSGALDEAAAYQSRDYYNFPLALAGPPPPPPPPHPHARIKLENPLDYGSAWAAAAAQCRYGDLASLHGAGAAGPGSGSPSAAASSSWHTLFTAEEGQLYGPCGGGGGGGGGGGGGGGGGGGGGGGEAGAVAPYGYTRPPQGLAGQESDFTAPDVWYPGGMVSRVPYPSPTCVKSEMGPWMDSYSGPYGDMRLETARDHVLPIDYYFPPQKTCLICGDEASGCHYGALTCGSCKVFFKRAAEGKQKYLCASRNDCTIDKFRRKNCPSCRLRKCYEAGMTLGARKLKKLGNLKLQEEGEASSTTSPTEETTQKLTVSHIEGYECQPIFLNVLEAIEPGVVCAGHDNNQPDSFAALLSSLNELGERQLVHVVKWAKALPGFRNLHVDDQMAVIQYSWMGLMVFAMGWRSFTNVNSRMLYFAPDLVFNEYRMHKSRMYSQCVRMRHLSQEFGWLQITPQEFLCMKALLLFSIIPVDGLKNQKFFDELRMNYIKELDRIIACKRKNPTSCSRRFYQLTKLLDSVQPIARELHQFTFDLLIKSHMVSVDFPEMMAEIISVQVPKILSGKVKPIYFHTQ

Rattus norvegicus [3] = assay: Oral bioavailability in Sprague-Dawley rat assessed as 5-(3,5-Dichloro-4-hydroxybenzylidene)-3-(4-methoxyphenyl)-2-thioxo-1,3-oxazolidin-4-one concentration at 10 mg/kg; format: ADME, organism-based; settings: in vivo
[4] = molecular target: T3, Estrogen receptor (Homo sapiens) (UniProt P03372); assay: Antagonist activity at human ERalpha receptor expressed in human HeLa cells assessed as inhibition of DHT-induced response after 40 hrs by luciferase/beta-galactosidase-based reporter gene assay; format: functional, cell-based
T3 sequence (whole entry): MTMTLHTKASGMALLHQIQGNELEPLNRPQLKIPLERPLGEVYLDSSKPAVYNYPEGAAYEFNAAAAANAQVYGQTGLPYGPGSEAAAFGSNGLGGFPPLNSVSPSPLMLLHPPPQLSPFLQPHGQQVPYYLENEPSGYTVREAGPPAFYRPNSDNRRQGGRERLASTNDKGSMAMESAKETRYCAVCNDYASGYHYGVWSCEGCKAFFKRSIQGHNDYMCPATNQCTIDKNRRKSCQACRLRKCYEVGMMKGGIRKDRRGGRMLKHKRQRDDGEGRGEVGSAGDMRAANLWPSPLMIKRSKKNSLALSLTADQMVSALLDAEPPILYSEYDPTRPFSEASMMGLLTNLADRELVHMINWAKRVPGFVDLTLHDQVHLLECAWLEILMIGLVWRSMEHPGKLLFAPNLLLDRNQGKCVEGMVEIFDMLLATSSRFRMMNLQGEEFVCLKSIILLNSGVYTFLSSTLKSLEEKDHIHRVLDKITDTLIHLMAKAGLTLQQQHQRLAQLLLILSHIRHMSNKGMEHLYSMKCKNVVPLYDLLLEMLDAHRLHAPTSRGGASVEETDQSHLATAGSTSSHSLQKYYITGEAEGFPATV

Rattus norvegicus [5] = assay: Tmax in Sprague-Dawley rat assessed as 5-(3,5-Dichloro-4-hydroxybenzylidene)-3-(4-methoxyphenyl)-2-thioxo-1,3-oxazolidin-4-one concentration at 10 mg/kg, po; format: ADME, organism-based; set-up: dose 10 mg/kg, route oral; settings: in vivo
Rattus norvegicus [6] = assay: Inhibition of LH-RH agonist leuprorelin-induced testosterone steroidogenesis in Sprague-Dawley rat drug administered po 1 hr prior leuprorelin-induction measured up to 240 mins by GC/MS analysis; format: functional, organism-based
Rattus norvegicus [7] = assay: Cmax in Sprague-Dawley rat assessed as 5-(3,5-Dichloro-4-hydroxybenzylidene)-3-(4-methoxyphenyl)-2-thioxo-1,3-oxazolidin-4-one concentration at 10 mg/kg, po; format: ADME, organism-based; set-up: dose 10 mg/kg, route oral; settings: in vivo
Rattus norvegicus [8] = assay: Inhibition of LH-RH agonist leuprorelin-induced testosterone steroidogenesis in Sprague-Dawley rat at 100 mg/kg, po administered 1 hr prior leuprorelin-induction measured up to 240 mins by GC/MS analysis relative to CB7630; format: functional
[9] = molecular target: T3, Estrogen receptor (Homo sapiens); assay: Agonist activity at human Estrogen receptor ERalpha expressed in human HeLa cells assessed as DHT-induced response after 40 hrs by luciferase/beta-galactosidase-based reporter gene assay; format: functional, cell-based
[10] = AUC (0 to 24 hrs) in Sprague-Dawley rat at 10 mg/kg, po; format: ADME, organism-based; set-up: time < 24 hr, dose 10 mg/kg, route oral; settings: plasma
[11] = Cmax in Sprague-Dawley rat at 10 mg/kg, po; format: ADME, organism-based; set-up: dose 10 mg/kg, route oral; settings: in vivo

Row | SMILES | Activity [1] | Activity [2] | F (Rattus norvegicus [3]) | Activity [4] | Tmax (Rattus norvegicus [5]) | inhibition (Rattus norvegicus [6]) | Cmax (Rattus norvegicus [7]) | fold change (FC) (Rattus norvegicus [8]) | Activity [9] | AUC(0-t) at 24 h [10] | Cmax [11]
1 | COc1ccc(N2C(=O)/C(=C/c3cc(Cl)c(OP(=O)(O)O)c(Cl)c3)OC2=S)cc1 | inactive | inactive | 35.1% | inactive | 1 h | Dose-dependent effect | 5250 ng/mL | 2 | inactive |  | 
2 | COc1ccc(N2C(=O)/C(=C/c3cc(Cl)c(O)c(Cl)c3)OC2=S)cc1 | inactive | inactive |  | inactive |  |  |  |  | inactive | 4000 ng·h/mL | 400 ng/mL

Source: ChEMBL document CHEMBL2016457, “Discovery of potent and orally bioavailable 17β-hydroxysteroid dehydrogenase type 3 inhibitors” (Bioorg Med Chem, 2012)
